Test results taken from patent publication US11608335B2, “Somatostatin modulators and uses thereof” (CRINETICS PHARMACEUTICALS, INC., priority 2018, dated 2023).
Where two headings read alike, the source gives them in different places.

Columns and labels:
[1] = target: T1, human somatostatin receptor subtype 4 (Homo sapiens, UniProt P31391); test: cAMP assay for hSST4R (inhibition of cAMP via human SST4 receptor); type: cell-based; conditions: from inhibition of cAMP via human SST5 receptor and human SST4 receptor
T1 construct: expressed in transfected cells
Excerpt: cAMP Assay Protocol hSST4R:

[2] = target: T2, human somatostatin receptor subtype 2 (Homo sapiens, UniProt P30874); test: cAMP assay for SST2R (inhibition of cAMP via human SST2 receptor); type: cell-based; conditions: Table B, read-out: SST2 potency
T2 construct: expressed in transfected cells
Excerpt: cAMP Assay Protocol for SST2R:

[3] = target: human somatostatin receptor subtype 5 (Homo sapiens, UniProt P35346); test: cAMP assay for SST5R (inhibition of cAMP via human SST5 receptor); conditions: for Fold selectivity for SST5 vs SST2: SST5 over SST2, class symbols
[4] = target: T3, human somatostatin receptor subtype 3 (Homo sapiens, UniProt P32745); test: cAMP assay for SST3R (inhibition of cAMP via human SST3 receptor); type: cell-based; conditions: from inhibition of cAMP via human SST5 receptor and human SST3 receptor
T3 construct: expressed in transfected cells
Excerpt: cAMP Assay Protocol for SST3R:

[5] = read-out: SST5 potency, inhibition of cAMP via human SST5 receptor, Table B

human somatostatin receptor subtype 5, sequence (P35346 whole entry): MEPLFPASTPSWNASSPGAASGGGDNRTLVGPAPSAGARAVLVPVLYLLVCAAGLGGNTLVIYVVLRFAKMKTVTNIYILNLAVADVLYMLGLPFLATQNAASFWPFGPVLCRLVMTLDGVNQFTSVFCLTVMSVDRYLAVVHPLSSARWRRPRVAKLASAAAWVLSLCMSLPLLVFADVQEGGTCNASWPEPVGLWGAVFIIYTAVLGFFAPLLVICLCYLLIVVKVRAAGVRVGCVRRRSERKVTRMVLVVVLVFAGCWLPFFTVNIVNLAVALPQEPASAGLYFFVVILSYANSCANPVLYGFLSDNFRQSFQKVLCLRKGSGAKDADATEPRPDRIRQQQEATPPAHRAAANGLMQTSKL
T1 sequence (P31391 whole entry): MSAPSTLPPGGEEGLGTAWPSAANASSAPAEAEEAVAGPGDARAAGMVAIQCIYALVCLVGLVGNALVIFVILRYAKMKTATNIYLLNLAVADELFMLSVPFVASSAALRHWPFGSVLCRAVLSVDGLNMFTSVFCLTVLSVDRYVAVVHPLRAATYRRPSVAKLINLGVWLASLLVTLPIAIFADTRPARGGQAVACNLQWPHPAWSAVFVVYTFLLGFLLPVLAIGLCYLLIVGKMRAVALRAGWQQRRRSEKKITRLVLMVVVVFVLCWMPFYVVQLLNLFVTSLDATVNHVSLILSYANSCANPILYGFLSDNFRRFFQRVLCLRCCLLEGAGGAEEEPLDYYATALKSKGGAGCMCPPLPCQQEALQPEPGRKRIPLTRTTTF
T3 sequence (P32745 whole entry): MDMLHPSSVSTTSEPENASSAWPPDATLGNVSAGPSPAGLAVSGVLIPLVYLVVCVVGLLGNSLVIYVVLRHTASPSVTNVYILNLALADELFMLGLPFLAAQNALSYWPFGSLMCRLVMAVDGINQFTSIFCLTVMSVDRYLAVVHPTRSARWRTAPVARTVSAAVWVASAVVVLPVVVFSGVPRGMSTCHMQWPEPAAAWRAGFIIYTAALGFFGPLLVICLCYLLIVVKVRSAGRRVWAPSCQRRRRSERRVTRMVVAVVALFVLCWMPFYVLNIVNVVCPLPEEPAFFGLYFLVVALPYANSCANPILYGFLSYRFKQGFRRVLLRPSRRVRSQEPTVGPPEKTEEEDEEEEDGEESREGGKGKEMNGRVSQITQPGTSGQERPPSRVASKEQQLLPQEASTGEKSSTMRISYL
T2 sequence (P30874 whole entry): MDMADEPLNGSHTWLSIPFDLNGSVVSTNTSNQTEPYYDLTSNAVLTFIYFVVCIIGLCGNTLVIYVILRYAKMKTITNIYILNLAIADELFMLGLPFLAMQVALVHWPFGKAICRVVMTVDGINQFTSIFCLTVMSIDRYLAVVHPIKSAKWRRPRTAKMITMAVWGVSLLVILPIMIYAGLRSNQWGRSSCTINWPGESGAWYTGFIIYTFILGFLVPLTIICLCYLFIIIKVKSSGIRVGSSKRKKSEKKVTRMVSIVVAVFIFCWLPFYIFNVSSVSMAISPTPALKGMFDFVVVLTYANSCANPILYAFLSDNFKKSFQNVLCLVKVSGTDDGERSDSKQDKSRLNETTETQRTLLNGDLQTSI

SMILES | Fold selectivity for SST5 vs SST4 [1] [fold] | EC50 [2] [nM] | EC50 [3] [nM] | Fold selectivity for SST5 vs SST2 [3] | EC50 [3, 5] [nM] | Fold selectivity for SST5 vs SST3 [4] [fold]
NCC1CN(c2c(-c3ccc4ccccc4c3)cncc2-c2nc3cc(F)cc(F)c3[nH]2)C1 [Compound 1-41, 1-{1-[3-(4,6-difluoro-1H-1,3-benzodiazol-2-yl)-5-(naphthalen-2-yl)pyridin-4-yl]azetidin-3-yl}methanamine] | 8.8 |  | 100 to 1000 |  |  | 
CC(N)C1(C)CN(c2c(-c3cccc(F)c3)cncc2-c2nc3cc(F)cc(F)c3[nH]2)C1 (stereo not shown) [Compound 1-68, 1-{1-[3-(4,6-difluoro-1H-1,3-benzodiazol-2-yl)-5-(3-fluorophenyl)pyridin-4-yl]-3-methylazetidin-3-yl}ethan-1-amine] |  | > 1000 | < 10 | +++ (+++=≥500) | < 10 | 
Cc1ccnc2nc(-c3cncc(-c4cc(F)cc(C#N)c4)c3N3CCC(C)(N)C3)[nH]c12 (stereo not shown) [Compound 2-108, 3-[4-(3-amino-3-methylpyrrolidin-1-yl)-5-{7-methyl-1H-imidazo[4,5-b]pyridin-2-yl}pyridin-3-yl]-5-fluorobenzonitrile] |  | 100 to 1000 | < 10 | ++ (++=100 to 499) | < 10 | 
N#Cc1ccc(-c2cncc(-c3nc4cccc(F)c4[nH]3)c2N2CC[C@H](N)C2)s1 [Compound 2-26, 5-{4-[(3S)-3-aminopyrrolidin-1-yl]-5-(4-fluoro-1H-1,3-benzodiazol-2-yl)pyridin-3-yl}thiophene-2-carbonitrile] |  | 100 to 1000 | < 10 | ++ (++=100 to 499) | < 10 | 
Cc1c(F)ccc2nc(-c3cncc(-c4ccnc(C#N)c4)c3N3CC[C@](C)(N)C3)[nH]c12 [Compound 2-164, 4-[(3S)-3-amino-3-methylpyrrolidin-1-yl]-5-(5-fluoro-4-methyl-1H-1,3-benzodiazol-2-yl)-[3,4′-bipyridine]-2′-carbonitrile] | 323 |  | < 10 |  |  | 
CC(N)C1(C)CN(c2c(-c3cccc(C(F)(F)F)c3)cncc2-c2nc3cc(F)cc(F)c3[nH]2)C1 (stereo not shown) [Compound 1-69, 1-{1-[3-(4,6-difluoro-1H-1,3-benzodiazol-2-yl)-5-[3-(trifluoromethyl)phenyl]pyridin-4-yl]-3-methylazetidin-3-yl}ethan-1-amine] |  | > 1000 | < 10 | +++ (+++=≥500) | < 10 | 
N#Cc1cc(F)cc(-c2cncc(-c3nc4ccccc4[nH]3)c2N2CC[C@H](N)C2)c1 [Compound 2-109, 3-{4-[(3S)-3-aminopyrrolidin-1-yl]-5-(1H-1,3-benzodiazol-2-yl)pyridin-3-yl}-5-fluorobenzonitrile] |  | 100 to 1000 | < 10 | ++ (++=100 to 499) | < 10 | 
Cc1cccc2nc(-c3cncc(-c4cc(F)cc(C#N)c4)c3N3CC[C@@](N)(CO)C3)[nH]c12 [Compound 2-135, 3-{4-[(3S)-3-amino-3-(hydroxymethyl)pyrrolidin-1-yl]-5-(4-methyl-1H-1,3-benzodiazol-2-yl)pyridin-3-yl}-5-fluorobenzonitrile] |  | 10 to 100 | < 10 | ++ (++=100 to 499) | < 10 | 
N#Cc1cc(-c2cncc(-c3nc4cccc(F)c4[nH]3)c2N2CC[C@H](N)C2)ccc1F [Compound 2-23, 5-{4-[(3S)-3-aminopyrrolidin-1-yl]-5-(4-fluoro-1H-1,3-benzodiazol-2-yl)pyridin-3-yl}-2-fluorobenzonitrile] |  | 100 to 1000 | < 10 | +++ (+++=≥500) | < 10 | 
Cc1ccc(F)c2[nH]c(-c3cncc(-c4ccnc(C#N)c4)c3N3CC[C@H](N)C3)nc12 [Compound 2-106, 4-[(3S)-3-aminopyrrolidin-1-yl]-5-(7-fluoro-4-methyl-1H-1,3-benzodiazol-2-yl)-[3,4′-bipyridine]-2′-carbonitrile] |  | 100 to 1000 | < 10 | +++ (+++=≥500) | < 10 | 
C[C@]1(N)CCN(c2c(-c3cccc(C#N)c3)cncc2-c2nc3cccc(C#N)c3[nH]2)C1 [Compound 2-177, 2-{4-[(3 S)-3-amino-3-methylpyrrolidin-1-yl]-5-(3-cyanophenyl)pyridin-3-yl}-1H-1,3-benzodiazole-7-carbonitrile] |  | 100 to 1000 | < 10 | +++ (+++=≥500) | < 10 | 
Cn1c(-c2cncc(-c3cc(F)cc(C#N)c3)c2N2CC[C@H](N)C2)nc2c(Cl)cccc21 [Compound 2-116, 3-{4-[(3S)-3-aminopyrrolidin-1-yl]-5-(4-chloro-1-methyl-1H-1,3-benzodiazol-2-yl)pyridin-3-yl}-5-fluorobenzonitrile] |  | > 1000 | < 10 | +++ (+++=≥500) | < 10 | 

More lines, now with the values ahead:

Fold selectivity for SST5 vs SST4 [1] [fold] | EC50 [2] [nM] | EC50 [3] [nM] | Fold selectivity for SST5 vs SST2 [3] | EC50 [3, 5] [nM] | Fold selectivity for SST5 vs SST3 [4] [fold] | SMILES
56 | 100 to 1000 | < 10 | ++ (++=100 to 499) | < 10 |  | Cc1ccnc2[nH]c(-c3cncc(-c4cc(F)c(F)c(C#N)c4)c3N3CC[C@](C)(N)C3)nc12 [Compound 2-165, 5-{4-[(3S)-3-amino-3-methylpyrrolidin-1-yl]-5-{7-methyl-1H-imidazo[4,5-b]pyridin-2-yl}pyridin-3-yl}-2,3-difluorobenzonitrile]
384 | 100 to 1000 | < 10 | +++ (+++=≥500) | < 10 | >1000 | CC(N)C1CN(c2c(-c3ccc(F)c(C#N)c3)cncc2-c2nc3cc(F)cc(F)c3[nH]2)C1 (stereo not shown) [Compound 1-65, 5-{4-[3-(1-aminoethyl)azetidin-1-yl]-5-(4,6-difluoro-1H-1,3-benzodiazol-2-yl)pyridin-3-yl}-2-fluorobenzonitrile]
18 | 100 to 1000 | < 10 | +++ (+++=≥500) | < 10 | 43 | Cc1ccc(F)c2[nH]c(-c3cncc(-c4cc(F)cc(C#N)c4)c3N3CC[C@H](N)C3)nc12 [Compound 2-63, 3-{4-[(3S)-3-aminopyrrolidin-1-yl]-5-(7-fluoro-4-methyl-1H-1,3-benzodiazol-2-yl)pyridin-3-yl}-5-fluorobenzonitrile]
812 | > 1000 | < 10 | +++ (+++=≥500) | < 10 | 200 | CCC(N)C1CN(c2c(-c3cc(C)cc(F)c3)cncc2-c2nc3cc(F)cc(F)c3[nH]2)C1 (stereo not shown) [Compound 1-51, 1-{1-[3-(4,6-difluoro-1H-1,3-benzodiazol-2-yl)-5-(3-fluoro-5-methylphenyl)pyridin-4-yl]azetidin-3-y}propan-1-amine]
63 | 100 to 1000 | < 10 | +++ (+++=≥500) | < 10 |  | Cc1cccc2nc(-c3cncc(-c4ccnc(C#N)c4)c3N3CC[C@](C)(N)C3)[nH]c12 [Compound 2-145, 4-[(3S)-3-amino-3-methylpyrrolidin-1-yl]-5-(4-methyl-1H-1,3-benzodiazol-2-yl)-[3,4′-bipyridine]-2′-carbonitrile]
136 | 100 to 1000 | < 10 | +++ (+++=≥500) | < 10 | 159 | C[C@]1(N)CCN(c2c(-c3cccc(C#N)c3)cncc2-c2nc3c(F)cccc3[nH]2)C1 [Compound 2-200, 3-{4-[(3S)-3-amino-3-methylpyrrolidin-1-yl]-5-(4-fluoro-1H-1,3-benzodiazol-2-yl)pyridin-3-yl}benzonitrile]
18 | 100 to 1000 | < 10 | +++ (+++=≥500) | < 10 | 183 | C[C@]1(N)CCN(c2c(-c3ccc(F)c(C#N)c3)cncc2-c2nc3cccc(C#N)c3[nH]2)C1 [Compound 2-171, 2-{4-[(3S)-3-amino-3-methylpyrrolidin-1-yl]-5-(3-cyano-4-fluorophenyl)pyridin-3-yl}-1H-1,3-benzodiazole-7-carbonitrile]
11 | 100 to 1000 | < 10 | +++ (+++=≥500) | < 10 | 42 | Cc1ccc(F)c2nc(-c3cncc(-c4cccc(C#N)c4)c3N3CC[C@H](N)C3)[nH]c12 [Compound 2-101, 3-{4-[(3S)-3-aminopyrrolidin-1-yl]-5-(7-fluoro-4-methyl-1H-1,3-benzodiazol-2-yl)pyridin-3-yl}benzonitrile]
 | 100 to 1000 | < 10 | ++ (++=100 to 499) | < 10 |  | Cc1cc(F)cc(-c2cncc(-c3nc4cccc(Cl)c4[nH]3)c2N2CC[C@H](N)C2)c1 [Compound 2-197, (3S)-1-[3-(7-chloro-1H-1,3-benzodiazol-2-yl)-5-(3-fluoro-5-methylphenyl)pyridin-4-yl]pyrrolidin-3-amine]
